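Exposure lasted 48 hours, with cells grown in 96-well plates and compounds tested at five concentrations. At the TGI there is no net growth.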
What was measured:
Test in all cases: inhibition of tumour cell growth, NCI panel, 48 h
PC-3 prostate = system: PC-3 prostate
RXF 393 renal = system: RXF 393 renal
SF-295 CNS = system: SF-295 CNS
U251 CNS = system: U251 CNS
SK-OV-3 ovarian = system: SK-OV-3 ovarian
LOX IMVI melanoma = system: LOX IMVI melanoma
OVCAR-4 ovarian = system: OVCAR-4 ovarian
SF-539 CNS = system: SF-539 CNS
HOP-92 NSCLC = system: HOP-92 NSCLC
M14 melanoma = system: M14 melanoma
MOLT-4 leukemia = system: MOLT-4 leukemia
MALME-3M melanoma = system: MALME-3M melanoma
MCF7 breast = system: MCF7 breast
SN12C renal = system: SN12C renal
SW-620 colon = system: SW-620 colon
A498 renal = system: A498 renal
EKVX NSCLC = system: EKVX NSCLC
NCI-H460 lung = system: NCI-H460 lung
DU-145 prostate = system: DU-145 prostate
SK-MEL-5 melanoma = system: SK-MEL-5 melanoma
UACC-257 melanoma = system: UACC-257 melanoma
MDA-MB-231 breast = system: MDA-MB-231 breast
SK-MEL-2 melanoma = system: SK-MEL-2 melanoma
OVCAR-5 ovarian = system: OVCAR-5 ovarian
786-0 renal = system: 786-0 renal
ACHN renal = system: ACHN renal
A549 NSCLC = system: A549 NSCLC
TK-10 renal = system: TK-10 renal
MDA-N = system: MDA-N
SNB-19 CNS = system: SNB-19 CNS
SK-MEL-28 melanoma = system: SK-MEL-28 melanoma
K-562 leukemia = system: K-562 leukemia
MDA-MB-435 = system: MDA-MB-435
HOP-62 NSCLC = system: HOP-62 NSCLC
NCI/ADR-RES ovarian = system: NCI/ADR-RES ovarian
IGROV1 ovarian = system: IGROV1 ovarian
HCC-2998 colon = system: HCC-2998 colon
HL-60(TB) leukemia = system: HL-60(TB) leukemia
HCT-116 colon = system: HCT-116 colon
HCT-15 colon = system: HCT-15 colon
NCI-H23 lung = system: NCI-H23 lung
NCI-H226 lung = system: NCI-H226 lung
COLO 205 colon = system: COLO 205 colon
UACC-62 melanoma = system: UACC-62 melanoma
SR leukemia = system: SR leukemia
HS 578T breast = system: HS 578T breast
HT29 colon = system: HT29 colon
UO-31 renal = system: UO-31 renal
SF-268 CNS = system: SF-268 CNS
KM12 colon = system: KM12 colon
OVCAR-3 ovarian = system: OVCAR-3 ovarian
T-47D breast = system: T-47D breast
RPMI-8226 leukemia = system: RPMI-8226 leukemia
OVCAR-8 ovarian = system: OVCAR-8 ovarian
NCI-H522 lung = system: NCI-H522 lung
CAKI-1 renal = system: CAKI-1 renal
BT-549 breast = system: BT-549 breast
CCRF-CEM leukemia = system: CCRF-CEM leukemia
SNB-75 CNS = system: SNB-75 CNS

Measured: TGI

C#C[C@@]1(O)CCCC2=CC3(CC[C@]21C)SCCS3
not listed: CAKI-1 renal | BT-549 breast | CCRF-CEM leukemia | SNB-75 CNS
> 100 µM: all other assays above

CC(C(=O)c1ccncc1)c1ccccn1 (stereo unspecified)
not listed: SF-539 CNS | MOLT-4 leukemia | SR leukemia | SNB-75 CNS
> 100 µM: all other assays above

COc1cc2cc(C(=O)N3CC(CCl)c4ccc(N(C)C)cc43)[nH]c2c(OC)c1OC (stereo unspecified)
7.01 µM: NCI-H460 lung
0.237 µM: M14 melanoma
0.289 µM: LOX IMVI melanoma
0.378 µM: T-47D breast
0.428 µM: NCI-H226 lung
0.531 µM: SN12C renal
0.259 µM: OVCAR-5 ovarian
0.359 µM: DU-145 prostate
> 59.9 µM: HCT-15 colon
0.2 µM: SF-539 CNS
4.05 µM: U251 CNS
0.524 µM: UACC-62 melanoma
0.627 µM: MDA-MB-231 breast
0.118 µM: NCI-H23 lung
0.236 µM: SK-MEL-5 melanoma
0.726 µM: SF-295 CNS
0.265 µM: HOP-62 NSCLC
0.633 µM: CCRF-CEM leukemia
1.33 µM: BT-549 breast
0.0761 µM: RXF 393 renal
0.0349 µM: NCI-H522 lung
0.758 µM: HS 578T breast
0.336 µM: MDA-MB-435
> 100 µM: TK-10 renal | K-562 leukemia
0.143 µM: UO-31 renal
1.28 µM: CAKI-1 renal
0.773 µM: SW-620 colon
0.128 µM: SK-MEL-2 melanoma
0.979 µM: PC-3 prostate
0.729 µM: OVCAR-4 ovarian
0.272 µM: NCI/ADR-RES ovarian
0.292 µM: HL-60(TB) leukemia
1.54 µM: SK-OV-3 ovarian
0.431 µM: MDA-N
0.106 µM: HCC-2998 colon
0.121 µM: SK-MEL-28 melanoma
0.543 µM: KM12 colon
0.443 µM: MOLT-4 leukemia
3.81 µM: SF-268 CNS
8.21 µM: SNB-19 CNS
0.363 µM: OVCAR-3 ovarian
0.558 µM: EKVX NSCLC
0.604 µM: MCF7 breast
0.213 µM: COLO 205 colon

COC(=O)c1cn(CC(O)CCl)nn1 (stereo unspecified)
not listed: SF-295 CNS | SK-OV-3 ovarian | 786-0 renal | HL-60(TB) leukemia | HCT-116 colon | NCI-H226 lung | UACC-62 melanoma | SR leukemia
> 100 µM: all other assays above

Source: PubChem BioAssay (NCI)
